Source: ChEMBL document CHEMBL4359905, “Discovery, structural insight, and bioactivities of BY27 as a selective inhibitor of the second bromodomains of BET proteins” (Eur J Med Chem, 2019)

Columns and labels:
[1] = target: T1, Bromodomain-containing protein 4 (Homo sapiens, UniProt O60885); test: Binding affinity to human recombinant BRD4 BD1 (44 to 168 residues) by fluorescence polarization assay
[2] = target: T1, Bromodomain-containing protein 4; test: Binding affinity to human recombinant BRD4 BD2 (333 to 460 residues) by fluorescence polarization assay
[3] = system: MV4-11; test: Antiproliferative activity against human MV4-11 cells assessed as cell growth inhibition after 4 days by CCK8 assay; type: functional, cell-based; details: MV4-11, 96 h
[4] = system: MM1.S; test: Antiproliferative activity against human MM1S cells assessed as cell growth inhibition after 4 days by CCK8 assay; type: functional, cell-based; details: 96 h
[5] = target: T2, Bromodomain-containing protein 3 (Homo sapiens, UniProt Q15059); test: Binding affinity to human recombinant BRD3 BD1 (24 to 144 residues) by fluorescence polarization assay
Target sequence in this assay (Q15059 whole entry, the tested form may be a part): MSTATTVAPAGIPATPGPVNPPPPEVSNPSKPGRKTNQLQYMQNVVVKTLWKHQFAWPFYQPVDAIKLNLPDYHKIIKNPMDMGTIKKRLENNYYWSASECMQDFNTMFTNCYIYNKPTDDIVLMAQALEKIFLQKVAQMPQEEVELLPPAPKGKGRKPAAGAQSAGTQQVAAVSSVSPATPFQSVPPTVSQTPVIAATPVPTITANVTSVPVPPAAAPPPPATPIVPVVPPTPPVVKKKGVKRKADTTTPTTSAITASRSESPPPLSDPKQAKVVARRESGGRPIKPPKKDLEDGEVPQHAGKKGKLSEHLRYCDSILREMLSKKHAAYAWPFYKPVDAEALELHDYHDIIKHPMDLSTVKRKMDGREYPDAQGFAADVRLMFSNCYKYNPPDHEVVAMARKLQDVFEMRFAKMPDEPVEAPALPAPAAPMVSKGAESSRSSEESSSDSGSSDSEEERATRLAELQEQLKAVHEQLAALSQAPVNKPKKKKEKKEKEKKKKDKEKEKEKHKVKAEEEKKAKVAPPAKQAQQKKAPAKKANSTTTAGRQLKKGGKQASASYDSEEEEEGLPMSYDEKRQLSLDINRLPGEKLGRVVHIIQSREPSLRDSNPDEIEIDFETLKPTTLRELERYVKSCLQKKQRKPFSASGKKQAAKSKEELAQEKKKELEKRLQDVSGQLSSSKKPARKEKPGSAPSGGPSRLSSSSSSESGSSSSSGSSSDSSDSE

[6] = target: T3, Bromodomain-containing protein 2 (Homo sapiens, UniProt P25440); test: Binding affinity to human recombinant BRD2 BD1 (72 to 205 residues) by fluorescence polarization assay
T3 sequence (P25440 whole entry, the tested form may be a part): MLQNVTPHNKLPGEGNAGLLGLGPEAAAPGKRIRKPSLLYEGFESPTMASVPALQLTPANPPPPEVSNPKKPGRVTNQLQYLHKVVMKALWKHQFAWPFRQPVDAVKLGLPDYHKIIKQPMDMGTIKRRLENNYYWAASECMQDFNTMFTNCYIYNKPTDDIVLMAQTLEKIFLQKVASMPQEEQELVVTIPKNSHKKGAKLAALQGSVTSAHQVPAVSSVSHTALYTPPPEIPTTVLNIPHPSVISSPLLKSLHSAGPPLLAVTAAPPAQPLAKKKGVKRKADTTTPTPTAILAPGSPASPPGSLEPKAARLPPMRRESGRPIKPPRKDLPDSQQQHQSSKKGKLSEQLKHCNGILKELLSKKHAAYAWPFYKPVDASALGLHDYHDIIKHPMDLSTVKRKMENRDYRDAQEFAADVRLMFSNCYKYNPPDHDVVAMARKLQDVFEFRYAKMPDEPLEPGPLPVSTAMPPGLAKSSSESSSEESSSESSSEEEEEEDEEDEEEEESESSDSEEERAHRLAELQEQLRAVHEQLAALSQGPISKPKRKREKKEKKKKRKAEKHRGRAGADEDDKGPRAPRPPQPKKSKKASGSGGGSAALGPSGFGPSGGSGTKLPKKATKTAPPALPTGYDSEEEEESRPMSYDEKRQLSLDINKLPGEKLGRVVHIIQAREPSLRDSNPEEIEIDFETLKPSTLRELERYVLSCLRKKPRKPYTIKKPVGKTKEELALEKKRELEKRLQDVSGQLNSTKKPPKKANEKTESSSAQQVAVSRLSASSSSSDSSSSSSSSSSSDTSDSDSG

[7] = target: T3, Bromodomain-containing protein 2; test: Binding affinity to human recombinant BRD2 BD2 (349 to 460 residues) by fluorescence polarization assay
[8] = target: T2, Bromodomain-containing protein 3; test: Binding affinity to human recombinant BRD3 BD2 (306 to 417 residues) by fluorescence polarization assay
Target sequence in this assay (Q15059 whole entry, the tested form may be a part): as the sequence (Q15059 whole entry, the tested form may be a part) above

[9] = target: T2, Bromodomain-containing protein 3; test: Selectivity index, ratio of Ki for human recombinant BRD3 BD1 (24 to 144 residues) to Ki for human recombinant BRD3 BD2 (306 to 417 residues)
Target sequence in this assay (Q15059 2-726 limits assumed): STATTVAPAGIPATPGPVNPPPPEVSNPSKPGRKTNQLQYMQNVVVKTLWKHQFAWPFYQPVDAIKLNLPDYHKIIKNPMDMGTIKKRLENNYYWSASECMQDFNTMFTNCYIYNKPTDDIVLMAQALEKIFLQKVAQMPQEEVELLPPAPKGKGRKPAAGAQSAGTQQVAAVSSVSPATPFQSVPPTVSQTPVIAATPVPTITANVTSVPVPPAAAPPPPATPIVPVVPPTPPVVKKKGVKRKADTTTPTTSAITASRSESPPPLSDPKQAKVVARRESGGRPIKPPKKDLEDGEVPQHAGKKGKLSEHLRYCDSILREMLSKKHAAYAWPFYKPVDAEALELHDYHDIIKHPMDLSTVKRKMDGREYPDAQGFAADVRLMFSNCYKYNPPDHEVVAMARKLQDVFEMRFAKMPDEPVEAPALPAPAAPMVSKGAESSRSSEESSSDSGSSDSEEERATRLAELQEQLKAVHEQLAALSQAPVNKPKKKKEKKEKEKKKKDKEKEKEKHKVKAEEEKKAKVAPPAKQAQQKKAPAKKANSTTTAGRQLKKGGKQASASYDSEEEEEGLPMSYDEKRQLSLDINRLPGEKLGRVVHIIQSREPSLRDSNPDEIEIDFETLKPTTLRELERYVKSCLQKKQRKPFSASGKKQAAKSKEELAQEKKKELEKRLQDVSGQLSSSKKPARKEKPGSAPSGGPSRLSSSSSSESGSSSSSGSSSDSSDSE

[10] = system: HepG2; test: Downregulation of ARID5B in human HepG2 cells after 4 hrs by qRT-PCR analysis; type: functional, cell-based
[11] = system: MV4-11; test: Decrease in c-Myc protein expression in human MV4-11 cells incubated for 24 hrs by western blot analysis; type: functional, cell-based
[12] = system: MV4-11; test: Increase in p21 protein expression in human MV4-11 cells incubated for 24 hrs by western blot analysis; type: functional, cell-based
[13] = system: MV4-11; test: Downregulation of cMyc mRNA expression in human MV4-11 cells after 24 hrs by qRT-PCR analysis; type: functional, cell-based
[14] = system: HepG2; test: Downregulation of G6PC in human HepG2 cells after 4 hrs by qRT-PCR analysis; type: functional, cell-based
[15] = system: HepG2; test: Downregulation of […] in human HepG2 cells after 4 hrs by qRT-PCR analysis; type: functional, cell-based
[16] = system: MV4-11; test: Upregulation of p21 mRNA expression in human MV4-11 cells after 24 hrs by qRT-PCR analysis; type: functional, cell-based

| SMILES | Ki [1] [µM] | Ki [2] [µM] | IC50 [3] [µM] | IC50 [4] [µM] | also measured |
| --- | --- | --- | --- | --- | --- |
| Cc1nnc2n1-c1ccc(-c3ccc(N)nc3)cc1C(Nc1cccc3ccccc13)CC2 (centres undefined) | 0.712 | 0.0415 | – | – | – |
| Cc1nnc2n1-c1ccc(-c3cnn(C)c3)cc1C(Nc1ccc3ccccc3c1)CC2 (centres undefined) | 0.419 | 0.0247 | 0.116 | 0.535 | – |
| Cc1nnc2n1-c1ccc(Br)cc1C(Nc1ccc(Cl)cc1)CC2 (racemic) | > 2 | 0.736 | 2.04 | 5.31 | – |
| Cc1nnc2n1-c1ccc(NS(C)(=O)=O)cc1C(Nc1ccc(Cl)cc1)CC2 (centres undefined) | 3.35 | 0.918 | 4.82 | 9.06 | – |
| Cc1nnc2n1-c1ccc(-c3ccc(N(C)C)cc3)cc1C(Nc1ccc(Cl)cc1)CC2 (centres undefined) | 0.466 | 0.0654 | 1.95 | 1.02 | – |
| Cc1nnc2n1-c1ccc(-c3ccc(CCCN4CCN(C)CC4)cc3)cc1C(Nc1ccc(Cl)cc1)CC2 (centres undefined) | 0.0817 | 0.0123 | 0.127 | 0.11 | – |
| CC(=O)Nc1ccc2c(c1)C(Nc1ccc(Cl)cc1)CCc1nnc(C)n1-2 (centres undefined) | 0.457 | 0.0503 | 1.03 | 1.44 | – |
| Cc1nnc2n1-c1ccc(-c3ccc(N)nc3)cc1C(Nc1cccc(CO)c1)CC2 (centres undefined) | 1.96 | 0.128 | – | – | – |
| Cc1nnc2n1-c1ccc(-c3ccc(N)nc3)cc1C(Nc1ccc(F)cc1)CC2 (centres undefined) | 0.725 | 0.0926 | – | – | – |
| Cc1nnc2n1-c1ccc(-c3ccc(N)nc3)cc1C(Nc1ccc(C#N)cc1)CC2 (centres undefined) | 0.508 | 0.0806 | – | – | – |
| Cc1nnc2n1-c1ccc(-c3ccc(N)nc3)cc1C(Nc1cc(C3CC3)nn1C)CC2 (centres undefined) | 1.96 | 0.376 | – | – | – |
| COc1ccc2c(c1)C(Nc1ccc(Cl)cc1)CCc1nnc(C)n1-2 (centres undefined) | 1.3 | 0.249 | 1.16 | 1.4 | – |
| Cc1nnc2n1-c1ccc(-c3ccnc(N)c3)cc1C(Nc1ccc(Cl)cc1)CC2 (centres undefined) | 0.535 | 0.0747 | 0.5 | 0.345 | – |
| Cc1nnc2n1-c1ccc(-c3ccc(N)nc3)cc1C(Nc1ccc(C(F)(F)F)cc1)CC2 (centres undefined) | 0.576 | 0.147 | – | – | – |
| Cc1nnc2n1-c1ccc(-c3cnc(N)nc3)cc1C(Nc1ccc(Cl)cc1)CC2 (centres undefined) | 0.726 | 0.0662 | 0.401 | 1.02 | – |
| Cc1nnc2n1-c1ccc(-c3cnn(C)c3)cc1[C@@H](Nc1ccc(Cl)cc1)CC2 | 5 | 0.945 | 7.73 | 4.25 | – |
| Cc1nnc2n1-c1ccc(-c3cncs3)cc1C(Nc1ccc(Cl)cc1)CC2 (centres undefined) | 0.266 | 0.0348 | 0.374 | 0.345 | – |
| Cc1ccc(NC2CCc3nnc(C)n3-c3ccc(-c4ccc(N)nc4)cc32)cc1 (centres undefined) | 0.54 | 0.109 | – | – | – |

| SMILES | Ki [1] [µM] | Ki [2] [µM] | IC50 [3] [µM] | IC50 [4] [µM] | also measured |
| --- | --- | --- | --- | --- | --- |
| Cc1nnc2n1-c1ccc(-c3ccc(C(=O)O)cc3)cc1C(Nc1ccc(Cl)cc1)CC2 (centres undefined) | 0.247 | 0.0473 | 3.26 | 7.06 | – |
| Cc1nnc2n1-c1ccc(-c3cnn(C)c3)cc1C(Nc1ccc(Cl)cc1)CC2 (centres undefined) | 0.144 | 0.0148 | 0.0844 | 0.0644 | Ki [5]: 0.188 µM; Ki [6]: 0.275 µM; Ki [7]: 0.0091 µM; Ki [8]: 0.0111 µM; Ratio Ki [9]: 17 |
| Cc1nnc2n1-c1ccc(-c3ccc(N)nc3)cc1C(Nc1ccc(Cl)cc1)CC2 (centres undefined) | 0.636 | 0.0684 | – | – | – |
| Cc1nnc2n1-c1ccc(C3=CCNCC3)cc1C(Nc1ccc(Cl)cc1)CC2 (centres undefined) | 4.45 | 0.284 | 2.29 | 5.7 | – |
| Cc1nnc2n1-c1ccc(NC(=O)C3CCN(C)CC3)cc1C(Nc1ccc(Cl)cc1)CC2 (centres undefined) | 1.49 | 0.102 | 2.41 | 8.51 | – |
| Cc1nnc2n1-c1ccc(-c3ccc(CN4CCN(C)CC4)cc3)cc1C(Nc1ccc(Cl)cc1)CC2 (centres undefined) | 0.271 | 0.018 | 0.112 | 0.241 | – |
| Cc1nnc2n1-c1ccc(-c3cnn(C)c3)cc1C(Nc1cccc3ccccc13)CC2 (centres undefined) | 0.294 | 0.0213 | 0.107 | 0.533 | – |
| Cc1nnc2n1-c1ccc(N)cc1C(Nc1ccc(Cl)cc1)CC2 (centres undefined) | 11.1 | 1.23 | 4.33 | 7.95 | – |
| Cc1nnc2n1-c1ccc(-c3ccc(N4CCN(C)CC4)cc3)cc1C(Nc1ccc(Cl)cc1)CC2 (centres undefined) | 0.115 | 0.0174 | 0.0708 | 0.21 | – |
| Cc1nnc2n1-c1ccc(-c3cnoc3)cc1C(Nc1ccc(Cl)cc1)CC2 (centres undefined) | 0.232 | 0.0837 | 6.56 | 7.72 | – |
| Cc1sc2c(c1C)C(c1ccc(Cl)cc1)=N[C@@H](CC(=O)Nc1ccc(O)cc1)c1nnc(C)n1-2 [BIRABRESIB] | – | – | 0.0176 | 0.0227 | inhibition [10]: Dose-dependent effect; inhibition [11]: Dose-dependent effect; Activity [12]: Dose-dependent effect; inhibition [13]: Dose-dependent effect; inhibition [14]: Dose-dependent effect; inhibition [15]: Dose-dependent effect; Activity [16]: Dose-dependent effect |
| Cc1nnc2n1-c1ccc(-c3ccc(CCN4CCN(C)CC4)cc3)cc1C(Nc1ccc(Cl)cc1)CC2 (centres undefined) | 0.372 | 0.0544 | 0.165 | 0.258 | – |
| COc1ccc(NC2CCc3nnc(C)n3-c3ccc(-c4ccc(N)nc4)cc32)cc1 (centres undefined) | 1.91 | 0.174 | – | – | – |
| CCn1cc(-c2ccc3c(c2)C(Nc2ccc(Cl)cc2)CCc2nnc(C)n2-3)cn1 (centres undefined) | 0.0772 | 0.0148 | 0.0946 | 0.0635 | Ki [5]: 0.0997 µM; Ki [6]: 0.193 µM; Ki [7]: 0.0089 µM; Ki [8]: 0.0082 µM; Ratio Ki [9]: 12 |
| Cc1nnc2n1-c1ccc(-c3cn[nH]c3)cc1C(Nc1ccc(Cl)cc1)CC2 (centres undefined) | 0.126 | 0.0159 | 0.0991 | 0.259 | Ki [5]: 0.114 µM; Ki [6]: 0.27 µM; Ki [7]: 0.0191 µM; Ki [8]: 0.0139 µM; Ratio Ki [9]: 8 |
| Cc1nnc2n1-c1ccc(-c3ccc(N)nc3)cc1C(Nc1nn(C)c3ccccc13)CC2 (centres undefined) | 10.6 | 0.617 | – | – | – |
| Cc1nnc2n1-c1ccc(C3=CCN(C)CC3)cc1C(Nc1ccc(Cl)cc1)CC2 (centres undefined) | 4.32 | 0.413 | 1.78 | 3.24 | – |
| Cc1nnc2n1-c1ccc(-c3ccc4c(c3)CCC(=O)N4)cc1C(Nc1ccc(Cl)cc1)CC2 (centres undefined) | 0.31 | 0.0688 | 0.143 | 0.132 | – |
